Earlier results in patent US20090214599A1, “PROTON PUMP INHIBITOR FORMULATIONS, AND METHODS OF PREPARING AND USING SUCH FORMULATIONS” (AGI THERAPEUTICS PLC, priority 2008, published 2009).

Columns and labels:
[1] = pH <4
[2] = healthy subjects

For `COc1ccc2[nH]c([S+]([O-])Cc3ncc(C)c(OC)c3C)nc2c1` (stereo not drawn) [omeprazole], the “half-life of degradation in acid conditions” value [1] is given as about 10 min, the total body clearance [2] is given as 500 to 600 mL/min and the Protein binding is given as “approximately 95%”.
